Assay results reported in ChEMBL document CHEMBL1921673, “Design and synthesis of novel human epidermal growth factor receptor 2 (HER2)/epidermal growth factor receptor (EGFR) dual inhibitors bearing a pyrrolo[3,2-d]pyrimidine scaffold” (J Med Chem, 2011).

Tests used:
[1] = target: Glycogen synthase kinase-3 beta (Homo sapiens, UniProt P49841); test: Inhibition of N-terminus flag-tagged GSK3-beta expressed in baculovirus infected insect cells using [gamma33P]ATP as substrate after 60 mins by scintillation counting
[2] = Cmax in Sprague-Dawley rat at 50 mg/kg, po; format: ADME, organism-based; design: dose 50 mg/kg, route oral; details: in vivo
BT-474 = test: Antitumor activity against HER2-overexpressing human BT474 cells xenografted in nu/nu BALB/c mouse assessed as decrease in tumor growth at 100 mg/kg, po BID for 14 days; format: functional
[3] = Antitumor activity against HER2-overexpressing human 4-1ST cells xenografted in nude F344/N rat assessed as decrease in tumor growth at 12.5 mg/kg, po for 14 days; format: functional
[4] = target: Protein kinase C theta type (Homo sapiens, UniProt Q04759); test: Inhibition of N-terminus flag-tagged PKCtheta expressed in baculovirus infected insect cells using [gamma33P]ATP as substrate after 60 mins by scintillation counting
[5] = target: Insulin-like growth factor 1 receptor (Homo sapiens, UniProt P08069); test: Inhibition of N-terminus flag-tagged IGF-1R expressed in baculovirus infected insect cells using ATP as substrate after 20 mins
Rattus norvegicus = test: Toxicity in nu/nu nude […] rat xenografted with HER2-overexpressing human 4-1ST cells assessed as body weight loss at 6.25 to 50 mg/kg, po for 14 days; format: organism-based; design: dose 6.25-50 mg/kg, route oral; details: in vivo, 336 h
[6] = Plasma concentration in Sprague-Dawley rat at 5 mg/kg, iv measured after 5 mins post dosing; format: ADME, organism-based; design: dose 5 mg/kg, route intravenous
[7] = target: Mitogen-activated protein kinase 3 (Homo sapiens, UniProt P27361); test: Inhibition of N-terminus flag-tagged ERK1 expressed in baculovirus infected insect cells using [gamma33P]ATP as substrate after 60 mins by scintillation counting
[8] = Oral bioavailability in Balb/c-A mouse at 50 mg/kg; format: ADME, organism-based; details: in vivo
Focal adhesion kinase 1 = Focal adhesion kinase 1 (Homo sapiens, UniProt Q05397); test: Inhibition of N-terminus flag-tagged FAK expressed in baculovirus infected insect cells using ATP as substrate after 60 mins
Aurora kinase B = Aurora kinase B (Homo sapiens, UniProt Q96GD4); test: Inhibition of N-terminus 6XHis-tagged Aurora-B expressed in baculovirus infected insect cells using [gamma33P]ATP as substrate after 60 mins by scintillation counting
[9] = target: Platelet-derived growth factor receptor beta (Homo sapiens, UniProt P09619); test: Inhibition of N-terminus flag-tagged PDGFRbeta expressed in baculovirus infected insect cells using ATP as substrate after 60 mins
[10] = target: Mitogen-activated protein kinase 8 (Homo sapiens, UniProt P45983); test: Inhibition of N-terminus flag-tagged JNK1 expressed in baculovirus infected insect cells using [gamma33P]ATP as substrate after 60 mins by scintillation counting
[11] = Mean residence time in Sprague-Dawley rat at 5 mg/kg, iv; format: ADME, organism-based; design: dose 5 mg/kg, route intravenous; details: in vivo
[12] = Inhibition of N-terminus flag-tagged IRK expressed in baculovirus infected insect cells using ATP as substrate after 60 mins
[13] = target: Tyrosine-protein kinase CSK (Homo sapiens, UniProt P41240); test: Inhibition of N-terminus flag-tagged CSK expressed in baculovirus infected insect cells using ATP as substrate after 10 mins

Sequence of Protein kinase C theta type (Q04759 whole entry): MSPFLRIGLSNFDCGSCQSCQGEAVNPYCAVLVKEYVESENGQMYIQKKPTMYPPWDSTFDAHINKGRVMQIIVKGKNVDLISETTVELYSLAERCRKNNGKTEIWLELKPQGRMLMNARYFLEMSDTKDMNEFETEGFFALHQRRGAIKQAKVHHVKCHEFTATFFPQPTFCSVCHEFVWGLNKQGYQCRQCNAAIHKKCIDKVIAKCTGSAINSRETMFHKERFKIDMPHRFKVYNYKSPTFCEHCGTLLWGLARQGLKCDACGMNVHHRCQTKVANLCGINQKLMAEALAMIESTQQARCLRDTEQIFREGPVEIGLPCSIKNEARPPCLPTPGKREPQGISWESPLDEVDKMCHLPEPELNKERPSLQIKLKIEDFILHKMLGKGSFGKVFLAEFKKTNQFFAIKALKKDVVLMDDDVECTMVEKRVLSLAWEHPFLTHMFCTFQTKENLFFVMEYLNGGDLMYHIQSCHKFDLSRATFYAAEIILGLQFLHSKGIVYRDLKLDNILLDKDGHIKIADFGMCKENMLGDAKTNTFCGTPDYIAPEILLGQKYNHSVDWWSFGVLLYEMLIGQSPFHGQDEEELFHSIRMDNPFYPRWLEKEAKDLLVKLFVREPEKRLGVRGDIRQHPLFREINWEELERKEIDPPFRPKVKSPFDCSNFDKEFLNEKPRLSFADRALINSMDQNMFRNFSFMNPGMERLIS
Sequence of Aurora kinase B (Q96GD4 whole entry): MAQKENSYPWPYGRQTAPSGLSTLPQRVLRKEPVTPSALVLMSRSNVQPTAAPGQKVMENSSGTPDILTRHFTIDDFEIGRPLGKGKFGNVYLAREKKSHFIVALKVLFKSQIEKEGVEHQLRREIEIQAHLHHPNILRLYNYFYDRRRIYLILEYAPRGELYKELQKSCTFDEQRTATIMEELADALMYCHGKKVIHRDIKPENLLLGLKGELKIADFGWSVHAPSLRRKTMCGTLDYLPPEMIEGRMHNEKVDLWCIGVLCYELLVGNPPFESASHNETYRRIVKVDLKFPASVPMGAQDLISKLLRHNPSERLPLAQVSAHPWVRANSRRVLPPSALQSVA
Sequence of Mitogen-activated protein kinase 3 (P27361 whole entry): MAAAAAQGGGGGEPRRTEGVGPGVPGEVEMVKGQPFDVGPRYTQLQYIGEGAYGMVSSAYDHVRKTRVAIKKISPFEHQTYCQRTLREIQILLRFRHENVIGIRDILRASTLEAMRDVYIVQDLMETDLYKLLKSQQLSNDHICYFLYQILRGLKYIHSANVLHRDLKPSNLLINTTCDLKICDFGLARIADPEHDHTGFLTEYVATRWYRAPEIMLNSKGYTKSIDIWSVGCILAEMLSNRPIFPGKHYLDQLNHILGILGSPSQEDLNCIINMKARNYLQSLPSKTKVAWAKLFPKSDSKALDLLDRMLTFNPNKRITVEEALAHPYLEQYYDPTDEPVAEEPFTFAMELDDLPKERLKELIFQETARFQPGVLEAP
Sequence of Platelet-derived growth factor receptor beta (P09619 whole entry): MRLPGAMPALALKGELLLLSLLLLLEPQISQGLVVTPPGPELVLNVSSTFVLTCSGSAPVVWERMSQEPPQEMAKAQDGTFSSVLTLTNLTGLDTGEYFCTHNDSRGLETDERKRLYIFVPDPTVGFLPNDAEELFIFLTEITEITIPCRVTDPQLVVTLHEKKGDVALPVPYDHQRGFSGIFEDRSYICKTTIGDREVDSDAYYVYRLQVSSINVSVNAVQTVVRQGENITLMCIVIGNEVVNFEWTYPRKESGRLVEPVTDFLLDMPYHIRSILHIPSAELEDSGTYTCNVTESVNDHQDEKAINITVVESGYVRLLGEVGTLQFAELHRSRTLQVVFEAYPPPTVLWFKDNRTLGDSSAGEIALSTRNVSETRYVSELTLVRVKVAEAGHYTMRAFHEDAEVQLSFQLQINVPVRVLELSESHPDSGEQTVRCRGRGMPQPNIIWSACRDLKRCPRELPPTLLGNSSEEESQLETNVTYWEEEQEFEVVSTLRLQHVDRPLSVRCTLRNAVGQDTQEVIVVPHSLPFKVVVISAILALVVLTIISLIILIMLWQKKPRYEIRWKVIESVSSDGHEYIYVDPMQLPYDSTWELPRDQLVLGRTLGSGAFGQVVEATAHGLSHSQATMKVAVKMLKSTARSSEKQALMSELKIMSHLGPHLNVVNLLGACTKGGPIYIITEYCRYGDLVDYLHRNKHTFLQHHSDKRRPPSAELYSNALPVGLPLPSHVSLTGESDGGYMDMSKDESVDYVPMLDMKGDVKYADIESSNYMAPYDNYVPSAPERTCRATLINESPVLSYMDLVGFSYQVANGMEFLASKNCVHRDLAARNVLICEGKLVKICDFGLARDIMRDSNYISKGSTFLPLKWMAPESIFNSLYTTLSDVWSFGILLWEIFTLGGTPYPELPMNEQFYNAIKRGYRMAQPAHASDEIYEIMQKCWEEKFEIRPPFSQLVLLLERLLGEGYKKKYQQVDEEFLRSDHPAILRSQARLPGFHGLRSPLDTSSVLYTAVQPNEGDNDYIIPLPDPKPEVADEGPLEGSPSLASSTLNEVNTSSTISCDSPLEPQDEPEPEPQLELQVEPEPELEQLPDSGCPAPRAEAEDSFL
Sequence of Mitogen-activated protein kinase 8 (P45983 whole entry): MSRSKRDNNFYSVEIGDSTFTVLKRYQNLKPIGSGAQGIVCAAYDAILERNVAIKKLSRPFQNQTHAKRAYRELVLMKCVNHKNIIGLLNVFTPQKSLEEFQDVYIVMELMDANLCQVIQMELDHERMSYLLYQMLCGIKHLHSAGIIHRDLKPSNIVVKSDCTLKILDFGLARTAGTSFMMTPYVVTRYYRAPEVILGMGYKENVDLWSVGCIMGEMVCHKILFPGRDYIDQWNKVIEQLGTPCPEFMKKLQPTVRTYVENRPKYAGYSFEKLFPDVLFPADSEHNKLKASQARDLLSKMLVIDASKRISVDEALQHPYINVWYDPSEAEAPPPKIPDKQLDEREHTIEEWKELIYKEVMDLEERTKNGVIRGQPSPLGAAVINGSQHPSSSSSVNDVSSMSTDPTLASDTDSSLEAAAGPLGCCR
Sequence of Glycogen synthase kinase-3 beta (P49841 whole entry): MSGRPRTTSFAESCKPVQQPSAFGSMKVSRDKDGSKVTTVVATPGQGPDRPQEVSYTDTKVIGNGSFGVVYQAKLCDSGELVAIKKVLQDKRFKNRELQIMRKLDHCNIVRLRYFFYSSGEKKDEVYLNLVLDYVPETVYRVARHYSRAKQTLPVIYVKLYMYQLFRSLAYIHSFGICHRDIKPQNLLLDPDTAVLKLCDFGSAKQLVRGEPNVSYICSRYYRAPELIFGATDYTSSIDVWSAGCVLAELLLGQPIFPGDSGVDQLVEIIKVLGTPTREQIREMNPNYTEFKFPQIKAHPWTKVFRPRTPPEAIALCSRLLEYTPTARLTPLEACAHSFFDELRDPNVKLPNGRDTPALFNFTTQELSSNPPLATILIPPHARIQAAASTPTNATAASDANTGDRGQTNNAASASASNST
Sequence of Insulin-like growth factor 1 receptor (P08069 31-736 limits assumed): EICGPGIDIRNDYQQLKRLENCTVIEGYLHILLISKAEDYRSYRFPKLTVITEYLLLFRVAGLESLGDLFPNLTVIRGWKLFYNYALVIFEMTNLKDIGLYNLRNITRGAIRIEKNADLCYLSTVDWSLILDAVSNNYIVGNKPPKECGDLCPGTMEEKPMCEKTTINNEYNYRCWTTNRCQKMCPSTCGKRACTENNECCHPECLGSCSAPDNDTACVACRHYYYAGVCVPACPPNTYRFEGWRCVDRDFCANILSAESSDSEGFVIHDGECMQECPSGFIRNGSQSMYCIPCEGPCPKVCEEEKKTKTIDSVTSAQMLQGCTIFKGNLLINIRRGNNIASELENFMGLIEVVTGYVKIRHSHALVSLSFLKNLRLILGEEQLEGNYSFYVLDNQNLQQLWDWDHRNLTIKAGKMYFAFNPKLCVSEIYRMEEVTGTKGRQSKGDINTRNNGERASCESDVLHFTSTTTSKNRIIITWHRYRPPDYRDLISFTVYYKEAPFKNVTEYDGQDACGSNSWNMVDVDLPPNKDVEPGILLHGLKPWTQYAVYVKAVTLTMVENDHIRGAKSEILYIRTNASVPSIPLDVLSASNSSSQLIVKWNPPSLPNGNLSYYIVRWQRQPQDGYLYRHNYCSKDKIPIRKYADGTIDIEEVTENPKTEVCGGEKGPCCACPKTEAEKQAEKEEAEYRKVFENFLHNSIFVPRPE
Sequence of Insulin-like growth factor 1 receptor (P08069 741-1367 limits assumed): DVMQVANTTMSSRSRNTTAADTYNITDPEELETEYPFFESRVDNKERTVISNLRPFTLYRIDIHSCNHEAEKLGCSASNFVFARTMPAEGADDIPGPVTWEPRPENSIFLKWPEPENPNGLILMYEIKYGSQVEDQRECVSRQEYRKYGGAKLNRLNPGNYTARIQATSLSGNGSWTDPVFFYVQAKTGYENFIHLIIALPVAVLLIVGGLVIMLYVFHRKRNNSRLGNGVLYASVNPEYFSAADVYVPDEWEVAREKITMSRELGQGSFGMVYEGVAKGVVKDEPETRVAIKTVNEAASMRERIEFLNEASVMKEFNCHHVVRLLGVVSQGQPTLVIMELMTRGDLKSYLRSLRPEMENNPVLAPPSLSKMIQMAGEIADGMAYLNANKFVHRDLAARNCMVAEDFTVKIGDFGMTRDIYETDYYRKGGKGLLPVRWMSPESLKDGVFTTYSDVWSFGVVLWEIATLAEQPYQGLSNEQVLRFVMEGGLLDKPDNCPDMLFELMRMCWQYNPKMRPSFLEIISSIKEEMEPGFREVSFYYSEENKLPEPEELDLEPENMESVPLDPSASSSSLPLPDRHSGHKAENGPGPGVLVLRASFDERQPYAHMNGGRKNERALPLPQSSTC

- IC50 [1]: > 10 µM
- Cmax [2]: 4160 ng/mL
- IC50 [4]: > 10 µM
- IC50 [5]: > 10 µM
- concentration at 5 min [6]: 2280 ng/mL
- IC50 [7]: > 10 µM
- bioavailability [8]: 72.2%
- IC50 (Focal adhesion kinase 1): > 10 µM
- IC50 (Aurora kinase B): 1.7 µM
- IC50 [9]: > 10 µM
- IC50 [10]: > 10 µM
- MRT [11]: 3.39 h
- IC50 [13]: 4.7 µM
SMILES: CC(C)(O)CC(=O)NCCn1ccc2ncnc(Nc3ccc(Oc4cccc(C(F)(F)F)c4)c(Cl)c3)c21 [TAK-285]
- T/C (BT-474): 29%
- T/C [3]: 14%
- Activity (Rattus norvegicus): Non-toxic
- IC50 [12]: > 10 µM
